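How tested: cells in 96-well plates exposed to compound for 48 hours at five concentrations. The concentration for 50% growth inhibition is given as GI50.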 Activity calls are given as the source filed them. No stated cut-off is given here; in the data, active = GI50 up to about 1.1 µM and inactive = higher.
What was measured:
Test in all cases: growth of human tumour cells (NCI), 48 h
[1] = test system: XF498
[2] = test system: DMS-114
[3] = test system: KM-20L2
[4] = test system: RXF 631
[5] = test system: SNB-78
[6] = test system: HOP-18
[7] = test system: T47D
[8] = test system: MDA-MB-231

Compound | GI50 [1] | GI50 [2] | GI50 [3] | GI50 [4] | GI50 [5] | GI50 [6] | GI50 [7] | GI50 [8]
O=C(O)C1CCC(=O)N1C(=O)COc1cc(Cl)c(Cl)cc1Cl (stereo unspecified) | > 100 µM (inactive) | > 100 µM (inactive) | > 100 µM (inactive) | > 100 µM (inactive) | > 100 µM (inactive) |  |  | 
CC1=CC[C@H](C)C(C)(C)C1/C=C/C(C)=C/CC[C@@]1(CO)[C@H](CCCO)/C(=C(/C)C=O)CC[C@]1(C)O (stereo partly specified) | 7.41 µM (inactive) |  | 1.82 µM (inactive) |  | 13.2 µM (inactive) | 15.5 µM (inactive) |  | 
N#Cc1ccccc1NC(=O)C(=O)C(C(=O)c1ccccc1F)C1OC(=O)c2ccccc21 (stereo unspecified) | 84.7 µM (inactive) | 35.5 µM (inactive) | 76.7 µM (inactive) |  | 25.8 µM (inactive) |  |  | 
CCOC(=O)C(OP(=O)(OCC)OCC)C(F)(F)F (stereo unspecified) |  |  |  |  |  |  | > 100 µM (inactive) | > 100 µM (inactive)
Clc1ccccc1/C=C/c1cscn1 | > 100 µM (inactive) | > 100 µM (inactive) |  |  | > 100 µM (inactive) |  |  | 
Cc1ccc(NC(=O)S(N)(c2ccc(C)cc2)[N+](=O)[O-])cc1 (stereo unspecified) |  |  |  |  |  |  | 38 µM (inactive) | > 100 µM (inactive)
Cc1cccc(C(O)c2cccnc2)c1O (stereo unspecified) |  |  |  |  |  |  | > 100 µM (inactive) | > 100 µM (inactive)
O=C(c1ccccc1)C1C(c2ccccc2)N1S(=O)(=O)c1ccccc1 (stereo unspecified) |  |  |  |  |  |  | > 100 µM (inactive) | > 100 µM (inactive)
CC(C)=CCC(OC(=O)C=C(C)C)c1cc(O)c2c(c1O)C(=O)C=CC2=O (stereo unspecified) | 0.809 µM (active) | 1.05 µM (active) | 1.82 µM (inactive) |  | 2.07 µM (inactive) | 3.52 µM (inactive) |  | 
Brc1ccccc1-c1ncc(-c2ccccc2)o1 |  |  |  |  |  |  | 9.29 µM (inactive) | 38 µM (inactive)
